From patent publication US20110218188A1, “SUBSTITUTED (PYRIDYL)-AZINYLAMINE DERIVATIVES AS FUNGICIDES” (priority 2008, published 2011)
Marks after values point to notes of the source that are not given here.

Assay: Measurement of logP values by HPLC on reversed phase columns (EEC directive 79/831 Annex V.A8)
Format: physicochemical
Conditions: pH 2.7

| Structure (SMILES) | chromatographic logP | logP |
| --- | --- | --- |
| CC(=O)N(c1ccccc1)c1ncnc(-c2ccnc(C(=S)N(C)CC3CC3)c2)n1 [Example B344, N-(4-{2-[(cyclopropylmethyl)(methyl)carbamothioyl]pyridin-4-yl}-1,3,5-triazin-2-yl)-N-phenylacetamide] | 3.02 |  |
| CCN(CC)C(=O)c1cc(-c2ncnc(Nc3cccc(C(F)(F)F)c3)n2)ccn1 [Example B346] |  | 3.23 |
| CCN(CC)C(=O)c1cc(-c2ncnc(Nc3cccc(OC(F)(F)C(F)F)c3)n2)ccn1 [Example B348] |  | 3.29 |
| CCN(CC)C(=O)c1cc(-c2ncnc(Nc3ccc(C)c(Cl)c3)n2)ccn1 [Example B349] |  | 3.44 |
| CCN(CC)C(=O)c1cc(-c2ncnc(Nc3ccc(Cl)c(C(F)F)c3)n2)ccn1 [Example B352] |  | 3.23 |
| CCN(CC)C(=O)c1cc(-c2ncnc(Nc3ccc(F)c(C(F)F)c3)n2)ccn1 [Example B353] |  | 2.86 |
| CN(C)C(=O)c1cc(-c2ncnc(Nc3cc(F)ccc3F)n2)ccn1 [Example B354] |  | 2.1 |
| CN(C)C(=O)c1cc(-c2ncnc(Nc3cccc(C(F)(F)F)c3)n2)ccn1 [Example B355] |  | 2.58 |
| CCCN(C)C(=O)c1cc(-c2ncnc(Nc3cccc(C(F)(F)F)c3)n2)ccn1 [Example B356] |  | 3.25 |
| CN(CC1CC1)C(=O)c1cc(-c2ncnc(Nc3cccc(C(F)(F)F)c3)n2)ccn1 [Example B357] |  | 3.33 |
| CCN(C)C(=O)c1cc(-c2ncnc(Nc3cc(F)ccc3F)n2)ccn1 [Example B358] |  | 2.39 |
| Cc1ccc(Nc2ncnc(-c3ccnc(C(=O)N(C)C)c3)n2)cc1Cl [Example B359] |  | 2.71 |
| COCCN(C)C(=O)c1cc(-c2ncnc(Nc3cccc(C(F)(F)F)c3)n2)ccn1 [Example B361] |  | 2.75 |
| CC(C)CN(C)C(=O)c1cc(-c2ncnc(Nc3cccc(C(F)(F)F)c3)n2)ccn1 [Example B362] |  | 3.58 |
| CN(CCC#N)C(=O)c1cc(-c2ncnc(Nc3cccc(C(F)(F)F)c3)n2)ccn1 [Example B363] |  | 2.68 |
| CN(C)C(=O)c1cc(-c2ncnc(Nc3cccc(OC(F)(F)C(F)F)c3)n2)ccn1 [Example B364] |  | 2.64 |
| Cc1ccc(Nc2ncnc(-c3ccnc(C(=O)N(C)C(C)C)c3)n2)cc1Cl [Example B365] |  | 3.33 |
| Cc1ccc(Nc2ncnc(-c3ccnc(C(=O)N(C)CCC#N)c3)n2)cc1Cl [Example B366] |  | 2.8 |
| Cc1ccc(Nc2ncnc(-c3ccnc(C(=O)N(C)CC4CC4)c3)n2)cc1Cl [Example B367] |  | 3.53 |

| Structure (SMILES) | chromatographic logP | logP |
| --- | --- | --- |
| Cc1ccc(Nc2ncnc(-c3ccnc(C(=O)N(C)CC(C)C)c3)n2)cc1Cl [Example B368] |  | 3.78 |
| CN(CC(F)F)C(=O)c1cc(-c2ncnc(Nc3cccc(C#N)c3)n2)ccn1 [Example B369] |  | 2.45 |
| CN(CC(F)F)C(=O)c1cc(-c2ncnc(Nc3cccc(OC(F)F)c3)n2)ccn1 [Example B370] |  | 2.86 |
| CN(CC(F)F)C(=O)c1cc(-c2ncnc(Nc3cccc(C(F)F)c3)n2)ccn1 [Example B371] |  | 2.75 |
| CSc1cccc(Nc2ncnc(-c3ccnc(C(=O)N(C)CC(F)F)c3)n2)c1 [Example B372] |  | 2.96 |
| CN(CC(F)F)C(=O)c1cc(-c2ncnc(Nc3cccc(Cl)c3)n2)ccn1 [Example B373] |  | 3.06 |
| CCCN(C)C(=O)c1cc(-c2ncnc(Nc3ccc(C)c(Cl)c3)n2)ccn1 [Example B374] |  | 3.42 |
| CCCCN(C)C(=O)c1cc(-c2ncnc(Nc3cccc(F)c3)n2)ccn1 [Example B376] |  | 3.09 |
| CN(C)C(=O)c1cc(-c2ncnc(Nc3ccc(F)c(F)c3)n2)ccn1 [Example B377] |  | 2.25 |
| CCN(C)C(=O)c1cc(-c2ncnc(Nc3ccc(F)c(F)c3)n2)ccn1 [Example B378] |  | 2.55 |
| CCCN(C)C(=O)c1cc(-c2ncnc(Nc3ccc(F)c(F)c3)n2)ccn1 [Example B379] |  | 2.86 |
| CC(C)CN(C)C(=O)c1cc(-c2ncnc(Nc3ccc(F)c(F)c3)n2)ccn1 [Example B380] |  | 3.19 |
| CN(CC1CC1)C(=O)c1cc(-c2ncnc(Nc3ccc(F)c(F)c3)n2)ccn1 [Example B381] |  | 2.98 |
| CN(CC(F)F)C(=O)c1cc(-c2ncnc(Nc3ccc(F)c(F)c3)n2)ccn1 [Example B382] |  | 2.86 |
| CC(C)N(C)C(=O)c1cc(-c2ncnc(Nc3ccc(F)c(F)c3)n2)ccn1 [Example B383] |  | 2.78 |
| CN(CCC#N)C(=O)c1cc(-c2ncnc(Nc3ccc(F)c(F)c3)n2)ccn1 [Example B384] |  | 2.35 |
| CN(C)C(=O)c1cc(-c2ncnc(Nc3ccc(Cl)c(C(F)F)c3)n2)ccn1 [Example B385] |  | 2.59 |
| CCN(C)C(=O)c1cc(-c2ncnc(Nc3ccc(Cl)c(C(F)F)c3)n2)ccn1 [Example B386] |  | 2.88 |
| CCCN(C)C(=O)c1cc(-c2ncnc(Nc3ccc(Cl)c(C(F)F)c3)n2)ccn1 [Example B387] |  | 3.23 |

| Structure (SMILES) | chromatographic logP | logP |
| --- | --- | --- |
| CC(C)CN(C)C(=O)c1cc(-c2ncnc(Nc3ccc(Cl)c(C(F)F)c3)n2)ccn1 [Example B388] |  | 3.58 |
| CN(CCC#N)C(=O)c1cc(-c2ncnc(Nc3ccc(Cl)c(C(F)F)c3)n2)ccn1 [Example B389] |  | 2.69 |
| CN(CC1CC1)C(=O)c1cc(-c2ncnc(Nc3ccc(Cl)c(C(F)F)c3)n2)ccn1 [Example B390] |  | 3.31 |
| CC(C)N(C)C(=O)c1cc(-c2ncnc(Nc3ccc(Cl)c(C(F)F)c3)n2)ccn1 [Example B391] |  | 3.15 |
| CN(CC(F)F)C(=O)c1cc(-c2ncnc(Nc3ccc(Cl)c(C(F)F)c3)n2)ccn1 [Example B392] |  | 3.19 |
| CN(C)C(=O)c1cc(-c2ncnc(Nc3ccc(F)c(C(F)F)c3)n2)ccn1 [Example B393] |  | 2.25 |
| CCN(C)C(=O)c1cc(-c2ncnc(Nc3ccc(F)c(C(F)F)c3)n2)ccn1 [Example B394] |  | 2.55 |
| CC(C)CN(C)C(=O)c1cc(-c2ncnc(Nc3ccc(F)c(C(F)F)c3)n2)ccn1 [Example B395] |  | 3.15 |
| CC(C)N(C)C(=O)c1cc(-c2ncnc(Nc3ccc(F)c(C(F)F)c3)n2)ccn1 [Example B396] |  | 2.78 |
| CN(CCC#N)C(=O)c1cc(-c2ncnc(Nc3ccc(F)c(C(F)F)c3)n2)ccn1 [Example B397] |  | 2.37 |
| CN(CC(F)F)C(=O)c1cc(-c2ncnc(Nc3ccc(F)c(C(F)F)c3)n2)ccn1 [Example B398] |  | 2.84 |
| CCCN(C)C(=O)c1cc(-c2ncnc(Nc3ccc(F)c(C(F)F)c3)n2)ccn1 [Example B399] |  | 2.86 |
| CCN(C)C(=O)c1cc(-c2ncnc(Nc3cccc(C(F)F)c3)n2)ccn1 [Example B400] |  | 2.44 |
| COCC(=O)N(c1ccccc1)c1ncnc(-c2ccnc(C(=O)N(C)CC3CC3)c2)n1 [Example B401] |  | 2.37 |
| C#CCN(c1ccccc1)c1ncnc(-c2ccnc(C(=O)N(C)CC3CC3)c2)n1 [Example B402, N-(cyclopropylmethyl)-N-methyl-4-{4-[phenyl(prop-2-yn-1-yl)amino]-1,3,5-triazin-2-yl}pyridine-2-carboxamide] | 2.98 |  |
| COc1ccc(Nc2ncnc(-c3ccnc(C(=O)N(C)CC(C)C)c3)n2)cn1 [Example C9] |  | 2.37 |
| CN(CC1CC1)C(=O)c1cc(-c2ncnc(Nc3ccsc3)n2)ccn1 [Example C15] |  | 2.53 |
| CC(C)CN(C)C(=O)c1cc(-c2ncnc(Nc3ccsc3)n2)ccn1 [Example C16] |  | 2.63 |

The remaining lines, values ahead:

| chromatographic logP | logP | Structure (SMILES) |
| --- | --- | --- |
|  | 2.2 | COc1ccc(Nc2ncnc(-c3ccnc(C(=O)N(C)CC4CC4)c3)n2)cn1 [Example C6] |
|  | 1.57 | COc1ccc(Nc2ncnc(-c3ccnc(C(=O)N(C)C)c3)n2)cn1 [Example C8] |
|  | 1.82 | CCN(C)C(=O)c1cc(-c2ncnc(Nc3ccc(OC)nc3)n2)ccn1 [Example C10] |
|  | 2.78 | CCCCN(CC)C(=O)c1cc(-c2ncnc(Nc3ccc(OC)nc3)n2)ccn1 [Example C11] |
|  | 1.89 | CN(CCC#N)C(=O)c1cc(-c2ncnc(Nc3ccsc3)n2)ccn1 [Example C12] |
|  | 2.44 | CCN(CC)C(=O)c1cc(-c2ncnc(Nc3ccsc3)n2)ccn1 [Example C13] |
|  | 2.45 | CCCN(C)C(=O)c1cc(-c2ncnc(Nc3ccsc3)n2)ccn1 [Example C14] |
|  | 2.13 | CCN(C)C(=O)c1cc(-c2ncnc(Nc3ccsc3)n2)ccn1 [Example C17] |
|  | 1.19 | CC(C)CN(C)C(=O)c1cc(-c2ncnc(Nc3ccncc3)n2)ccn1 [Example C18] |
|  | 1.86 | CN(C)C(=O)c1cc(-c2ncnc(Nc3ccsc3)n2)ccn1 [Example C19] |
|  | 2.37 | CC(C)N(C)C(=O)c1cc(-c2ncnc(Nc3ccsc3)n2)ccn1 [Example C20] |
|  | 2.46 | CN(CC(F)F)C(=O)c1cc(-c2ncnc(Nc3ccsc3)n2)ccn1 [Example C21] |
|  | 3.02 | CCN(CC)C(=S)c1cc(-c2ncnc(Nc3ccsc3)n2)ccn1 [Example C22] |
|  | 2.68 | CCN(C)C(=S)c1cc(-c2ncnc(Nc3ccsc3)n2)ccn1 [Example C23] |
| 2.23 |  | COC(=O)c1cc(-c2ncnc(Nc3ccsc3)n2)ccn1 [Example C24, methyl 4-[4-(3-thienylamino)-1,3,5-triazin-2-yl]pyridine-2-carboxylate] |
|  | 2.02 | COC(=O)c1cc(-c2ncnc(Nc3ccnc(Cl)c3)n2)ccn1 [Example C25] |

Same assay, conditions: pH 7.8

| logP | chromatographic logP | Structure (SMILES) |
| --- | --- | --- |
| 1.99^[c] |  | COc1ccc(Nc2ncnc(-c3ccnc(C(=O)N4CCCC4)c3)n2)cn1 [Example C1] |
|  | 2.14 | COc1ccc(Nc2ncnc(-c3ccnc(C(=O)N4CCCCC4)c3)n2)cn1 [Example C2, (4-{4-[(6-methoxypyridin-3-yl)amino]-1,3,5-triazin-2-yl}pyridin-2-yl)(piperidin-1-yl)methanone] |
| 2.77^[c] |  | CCCN(CCC)C(=O)c1cc(-c2ncnc(Nc3ccc(OC)nc3)n2)ccn1 [Example C3] |
| 2.11^[c] |  | CCN(CC)C(=O)c1cc(-c2ncnc(Nc3ccc(OC)nc3)n2)ccn1 [Example C4] |
| 2.11^[c] |  | CCCN(C)C(=O)c1cc(-c2ncnc(Nc3ccc(OC)nc3)n2)ccn1 [Example C5] |
| 2.58^[c] |  | C=CCN(CC=C)C(=O)c1cc(-c2ncnc(Nc3ccc(OC)nc3)n2)ccn1 [Example C7] |
